Assay results from patent publication EP0168515A2, “Process for the preparation of steffimycinones, analogues of steffimycinones so obtained, intermediates useful in the synthesis of those compounds, use of these compounds as antibacterials acid for the synthesis of antitumor products” (LABORATOIRES HOECHST S.A., priority 1984, dated 1986).

How the values were obtained:
[1] = tested on: Bacillus subtilis (ATCC 6533); assay: Bactericidal action: growth inhibition test; format: cell-based; settings: 100 µg/ml in 60% Dimethylsulfoxyd / 40% destilliertem Wasser, after 24 Stunden
Procedure: (§1) Das Produkt der Formel II wurde an folgenden Mikroorganismen geprüft: • Bacillus pumilus (CNCM 7618) und • Bacillus subtilis (ATCC 6533)
(§2) Es wurde auf eine Konzentration von 100 µg/ml in einem Gemisch aus 60% Dimethylsulfoxyd und 40% destilliertem Wasser solubilisiert.

[2] = tested on: Bacillus pumilus (CNCM 7618); assay: Bactericidal action: growth inhibition test; format: cell-based; settings: 100 µg/ml in 60% Dimethylsulfoxyd / 40% destilliertem Wasser, after 24 Stunden
Procedure: as §1, §2

`COc1cc(O)c2c(c1)C(=O)c1cc3c(c(O)c1C2=O)C(O)CC(C)(O)C3=O` (single isomer, unassigned; (+)) [Verbindung II, (+)-8-Desmethoxy-steffimycinon] was tested, and the Wachstum [1] was “völlig gehemmt” and the Wachstum [2] was “völlig gehemmt”.
